Key:
[1] = target: T1, Albumin (Homo sapiens, UniProt P02768); experiment: Inhibition of D-glucose glycation in human serum albumin model by measuring absorbance at 279 nm incubated for 33 days by UV spectroscopic analysis (reference value: 1.997); details: 792 h, time 33 day
[2] = target: T1, Albumin; experiment: Inhibition of D-fructose glycation in human serum albumin model by measuring absorbance at 279 nm incubated for 30 days by UV spectroscopic analysis (reference value: 2.323); details: 720 h, time 30 day
[3] = target: T1, Albumin; experiment: Inhibition of D-glucose glycation in human serum albumin model by measuring ketoamine moieties incubated for 7 days by Nitroblue tetrazolium (NBT) reduction assay (reference value: 35.92 nmol/mL); details: 168 h, time 7 day
[4] = target: T1, Albumin; experiment: Inhibition of D-fructose glycation in human serum albumin model by measuring absorbance at 279 nm incubated for 14 days by UV spectroscopic analysis (reference value: 2.333); details: 336 h, time 14 day
[5] = target: T1, Albumin; experiment: Inhibition of D-fructose glycation in human serum albumin model by measuring ketoamine moieties incubated for 14 days by Nitroblue tetrazolium (NBT) reduction assay (reference value: 129.58 nmol/mL); details: 336 h, time 14 day
[6] = target: T1, Albumin; experiment: Inhibition of D-fructose glycation in human serum albumin model by measuring ketoamine moieties incubated for 3 days by Nitroblue tetrazolium (NBT) reduction assay (reference value: 152.64 nmol/mL); details: 72 h, time 3 day
[7] = target: T1, Albumin; experiment: Inhibition of D-fructose glycation in human serum albumin model by measuring ketoamine moieties incubated for 26 days by Nitroblue tetrazolium (NBT) reduction assay (reference value: 118.21 nmol/mL); details: 624 h, time 26 day
[8] = target: T1, Albumin; experiment: Inhibition of D-glucose glycation in human serum albumin model by measuring ketoamine moieties incubated for 33 days by Nitroblue tetrazolium (NBT) reduction assay (reference value: 66.64 nmol/mL); details: 792 h, time 33 day
[9] = target: T1, Albumin; experiment: Inhibition of D-glucose glycation in human serum albumin model by measuring ketoamine moieties incubated for 26 days by Nitroblue tetrazolium (NBT) reduction assay (reference value: 28.79 nmol/mL); details: 624 h, time 26 day
[10] = target: T1, Albumin; experiment: Inhibition of D-fructose glycation in human serum albumin model by measuring ketoamine moieties incubated for 33 days by Nitroblue tetrazolium (NBT) reduction assay (reference value: 144.33 nmol/mL); details: 792 h, time 33 day
[11] = target: T1, Albumin; experiment: Inhibition of D-glucose glycation in human serum albumin model assessed as reduction in fluorescence intensity incubated for 3 days by UV spectroscopic analysis relative to control; details: 72 h, time 3 day
[12] = target: T1, Albumin; experiment: Inhibition of D-glucose glycation in human serum albumin model by measuring ketoamine moieties incubated for 5 days by Nitroblue tetrazolium (NBT) reduction assay (reference value: 18.58 nmol/mL); details: 120 h, time 5 day
[13] = target: T1, Albumin; experiment: Inhibition of D-fructose glycation in human serum albumin model by measuring absorbance at 279 nm incubated for 7 days by UV spectroscopic analysis (reference value: 1.072); details: 168 h, time 7 day
[14] = target: T1, Albumin; experiment: Inhibition of D-glucose glycation in human serum albumin model by measuring ketoamine moieties incubated for 14 days by Nitroblue tetrazolium (NBT) reduction assay (reference value: 28.69 nmol/mL); details: 336 h, time 14 day
[15] = target: T1, Albumin; experiment: Inhibition of D-fructose glycation in human serum albumin model incubated for 14 days by UV spectroscopic analysis relative to control; details: 336 h, time 14 day
[16] = target: T1, Albumin; experiment: Inhibition of D-fructose glycation in human serum albumin model by measuring absorbance at 279 nm incubated for 26 days by UV spectroscopic analysis (reference value: 2.267); details: 624 h, time 26 day
[17] = target: T1, Albumin; experiment: Inhibition of D-fructose glycation in human serum albumin model by measuring absorbance at 279 nm incubated for 3 days by UV spectroscopic analysis (reference value: 0.492); details: 72 h, time 3 day
[18] = target: T1, Albumin; experiment: Inhibition of D-glucose glycation in human serum albumin model by measuring absorbance at 279 nm incubated for 26 days by UV spectroscopic analysis (reference value: 2.301); details: 624 h, time 26 day
[19] = target: T1, Albumin; experiment: Inhibition of D-fructose glycation in human serum albumin model by measuring absorbance at 279 nm incubated for 5 days by UV spectroscopic analysis (reference value: 1.056); details: 120 h, time 5 day
[20] = target: T1, Albumin; experiment: Inhibition of D-fructose glycation in human serum albumin model assessed as reduction in fluorescence intensity incubated for 3 days by UV spectroscopic analysis relative to control; details: 72 h, time 3 day
[21] = target: T1, Albumin; experiment: Inhibition of D-fructose glycation in human serum albumin model by measuring ketoamine moieties incubated for 5 days by Nitroblue tetrazolium (NBT) reduction assay (reference value: 111.94 nmol/mL); details: 120 h, time 5 day
[22] = target: T1, Albumin; experiment: Inhibition of D-glucose glycation in human serum albumin model by measuring absorbance at 279 nm incubated for 5 days by UV spectroscopic analysis (reference value: 0.741); details: 120 h, time 5 day
[23] = target: T1, Albumin; experiment: Inhibition of D-fructose glycation in human serum albumin model by measuring ketoamine moieties incubated for 30 days by Nitroblue tetrazolium (NBT) reduction assay (reference value: 128.71 nmol/mL); details: 720 h, time 30 day
[24] = target: T1, Albumin; experiment: Inhibition of D-fructose glycation in human serum albumin model by measuring ketoamine moieties incubated for 7 days by Nitroblue tetrazolium (NBT) reduction assay (reference value: 125.33 nmol/mL); details: 168 h, time 7 day
[25] = target: T1, Albumin; experiment: Inhibition of D-fructose glycation in human serum albumin model by measuring absorbance at 279 nm incubated for 33 days by UV spectroscopic analysis (Rvb =2.222); details: 792 h, time 33 day
[26] = target: T1, Albumin; experiment: Inhibition of D-glucose glycation in human serum albumin model incubated for 14 days by UV spectroscopic analysis relative to control; details: 336 h, time 14 day
[27] = target: T1, Albumin; experiment: Inhibition of D-glucose glycation in human serum albumin by measuring absorbance at 279 nm model incubated for 14 days by UV spectroscopic analysis (reference value: 2.302); details: 336 h, time 14 day
[28] = target: T1, Albumin; experiment: Inhibition of D-glucose glycation in human serum albumin model by measuring absorbance at 279 nm incubated for 7 days by UV spectroscopic analysis (reference value: […]); details: 168 h, time 7 day
[29] = target: T1, Albumin; experiment: Inhibition of D-glucose glycation in human serum albumin model by measuring absorbance at 279 nm incubated for 30 days by UV spectroscopic analysis (reference value: 2.295); details: 720 h, time 30 day
[30] = target: T1, Albumin; experiment: Inhibition of D-glucose glycation in human serum albumin model by measuring ketoamine moieties incubated for 30 days by Nitroblue tetrazolium (NBT) reduction assay (reference value: 27.85 nmol/mL); details: 720 h, time 30 day
[31] = target: T1, Albumin; experiment: Inhibition of D-glucose glycation in human serum albumin model by measuring absorbance at 279 nm incubated for 3 days by UV spectroscopic analysis (reference value: 0.562); details: 72 h, time 3 day
[32] = target: T1, Albumin; experiment: Inhibition of D-glucose glycation in human serum albumin model by measuring ketoamine moieties incubated for 3 days by Nitroblue tetrazolium (NBT) reduction assay (reference value: 24.27 nmol/mL); details: 72 h, time 3 day

T1 sequence (P02768 whole entry): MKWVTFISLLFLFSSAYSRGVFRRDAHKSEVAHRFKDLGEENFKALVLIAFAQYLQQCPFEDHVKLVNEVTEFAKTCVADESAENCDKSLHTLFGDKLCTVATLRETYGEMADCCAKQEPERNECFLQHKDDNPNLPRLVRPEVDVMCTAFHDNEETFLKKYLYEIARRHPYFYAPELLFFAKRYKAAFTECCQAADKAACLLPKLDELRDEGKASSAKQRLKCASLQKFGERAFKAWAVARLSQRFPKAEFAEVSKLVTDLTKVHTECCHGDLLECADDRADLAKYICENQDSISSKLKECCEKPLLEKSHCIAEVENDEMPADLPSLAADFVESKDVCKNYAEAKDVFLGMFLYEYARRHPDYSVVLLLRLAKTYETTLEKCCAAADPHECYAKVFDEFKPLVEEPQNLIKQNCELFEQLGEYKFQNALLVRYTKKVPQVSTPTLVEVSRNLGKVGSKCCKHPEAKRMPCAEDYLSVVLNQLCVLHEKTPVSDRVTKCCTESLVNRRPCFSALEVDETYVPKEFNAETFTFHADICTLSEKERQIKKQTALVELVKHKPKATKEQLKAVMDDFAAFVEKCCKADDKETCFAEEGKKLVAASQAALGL

## NCCC(=O)N[C@@H](Cc1cnc[nH]1)C(=O)O [CARNOSINE]
[1]
  OD: 1.853
[2]
  OD: 1.866
[3]
  Activity: 19.93 nmol/mL
[4]
  OD: 1.872
[5]
  Activity: 124.63 nmol/mL
[6]
  Activity: 144.52 nmol/mL
[7]
  Activity: 113.02 nmol/mL
[8]
  Activity: 36.79 nmol/mL
[9]
  Activity: 27.61 nmol/mL
[10]
  Activity: 143.12 nmol/mL
[11]
  inhibition (INH): 52.1%
[12]
  Activity: 17.43 nmol/mL
[13]
  OD: 0.756
[14]
  Activity: 25.34 nmol/mL
[15]
  inhibition (INH): 1.59%
[16]
  OD: 2.127
[17]
  OD: 0.487
[18]
  OD: 2.274
[19]
  OD: 1.024
[20]
  inhibition (INH): 27.77%
[21]
  Activity: 105.35 nmol/mL
[22]
  OD: 0.684
[23]
  Activity: 123.84 nmol/mL
[24]
  Activity: 119.64 nmol/mL
[25]
  OD: 2.173
[26]
  inhibition (INH): 41.84%
[27]
  OD: 1.662
[28]
  OD: 0.609
[29]
  OD: 1.654
[30]
  Activity: 24.69 nmol/mL
[31]
  OD: 0.562
[32]
  Activity: 20.51 nmol/mL

Reference: ChEMBL document CHEMBL6109039, “Designed and synthesized novel tripeptides targeting diabetes and its related pathologies” (Eur J Med Chem, 2025)
